Earlier results, collected in patent publication US20240285636A1, “PHARMACEUTICAL COMPOSITION AND USE OF THE PHARMACEUTICAL COMPOSITION” (LIBBS FARMACÊUTICA LTDA, priority 2021, published 2024).

Details: class IV = low solubility and low permeability

Biopharmaceutical Classification System class: class IV
SMILES: CCCSc1nc(N[C@@H]2C[C@H]2c2ccc(F)c(F)c2)c2nnn([C@@H]3C[C@H](OCCO)[C@@H](O)[C@H]3O)c2n1 (relative stereo) [Ticagrelor, {1S-[1α,2α,3β(1S*,2R*),5β}-3-(7-{[2-(3,4-difluorophenyl)-cyclopropyl]amino}-5-(propylthio)-3H-1,2,3-triazol[4,5-d]pyrimidin-3-yl)-5-(2-hydroxyethoxy)cyclopentane-1,2-diol]
